Experimental data as given in patent US10287255B2, “Compounds as histone deacetylase 6 inhibitors and pharmaceutical compositions comprising the same” (CHONG KUN DANG PHARMACEUTICAL CORP., priority 2014, dated 2019).

Legend:
human recombinant HDAC1 = target: T1, human recombinant HDAC1 (Homo sapiens, UniProt Q13547); assay: HDAC1 enzyme activity inhibition assay (in vitro, fluorimetric); assay type: biochemical; conditions: human recombinant HDAC1, fluorimetric kit, 30° C. 60 minutes
T1 construct: purchased Enzo Life Science BML-SE456
Description: (§1) In order to examine the HDAC6 selectivity of the compounds of formula 1 of the present invention by HDAC1 and HDAC6 enzymatic activity inhibition assays, an experiment was performed using a conventional substance as a control.
(§2) HDAC enzyme activity was measured using a HDAC Fluorimetric Drug Discovery Kit (BML-AK511, 516, Enzo Life Science). For the HDAC1 enzyme activity test, human recombinant HDAC1 (BML-SE456) was used as an enzyme source, and Fluor de Lys®-“SIRT1 (BNL-KI177) was used as a substrate. A 5-fold dilution of the compound was seeded into a 96-well plate, and then 0.3 μg of the enzyme and 10 μM of the substrate were added to each well of the plate and allowed to react at 30° C. for 60 minutes. Then, Fluor de Lys® Developer II (BML-KI176) was added thereto and allowed to react for 30 minutes, after which the fluorescence value (Ex 360, Em 460) was measured using a multi-plate reader (Flexstation 3, Molecular Device). The HDAC6 enzyme was tested using human recombinant HDAC6 (382180) (Calbiochem) according to the same protocol as the HDAC1 enzyme activity test method. Based on the resulting values, each IC50 value was calculated using GraphPad Prism4.0 program.

human recombinant HDAC6 = target: T2, human recombinant HDAC6 (Homo sapiens, UniProt Q9UBN7); assay: HDAC6 enzyme activity inhibition assay (in vitro, fluorimetric); assay type: biochemical; conditions: for HDAC6 selectivity (fold): HDAC6 selectivity over HDAC1; for IC50: human recombinant HDAC6, fluorimetric kit, same protocol as HDAC1
T2 construct: purchased Calbiochem 382180
T2 sequence (Q9UBN7 1-1215): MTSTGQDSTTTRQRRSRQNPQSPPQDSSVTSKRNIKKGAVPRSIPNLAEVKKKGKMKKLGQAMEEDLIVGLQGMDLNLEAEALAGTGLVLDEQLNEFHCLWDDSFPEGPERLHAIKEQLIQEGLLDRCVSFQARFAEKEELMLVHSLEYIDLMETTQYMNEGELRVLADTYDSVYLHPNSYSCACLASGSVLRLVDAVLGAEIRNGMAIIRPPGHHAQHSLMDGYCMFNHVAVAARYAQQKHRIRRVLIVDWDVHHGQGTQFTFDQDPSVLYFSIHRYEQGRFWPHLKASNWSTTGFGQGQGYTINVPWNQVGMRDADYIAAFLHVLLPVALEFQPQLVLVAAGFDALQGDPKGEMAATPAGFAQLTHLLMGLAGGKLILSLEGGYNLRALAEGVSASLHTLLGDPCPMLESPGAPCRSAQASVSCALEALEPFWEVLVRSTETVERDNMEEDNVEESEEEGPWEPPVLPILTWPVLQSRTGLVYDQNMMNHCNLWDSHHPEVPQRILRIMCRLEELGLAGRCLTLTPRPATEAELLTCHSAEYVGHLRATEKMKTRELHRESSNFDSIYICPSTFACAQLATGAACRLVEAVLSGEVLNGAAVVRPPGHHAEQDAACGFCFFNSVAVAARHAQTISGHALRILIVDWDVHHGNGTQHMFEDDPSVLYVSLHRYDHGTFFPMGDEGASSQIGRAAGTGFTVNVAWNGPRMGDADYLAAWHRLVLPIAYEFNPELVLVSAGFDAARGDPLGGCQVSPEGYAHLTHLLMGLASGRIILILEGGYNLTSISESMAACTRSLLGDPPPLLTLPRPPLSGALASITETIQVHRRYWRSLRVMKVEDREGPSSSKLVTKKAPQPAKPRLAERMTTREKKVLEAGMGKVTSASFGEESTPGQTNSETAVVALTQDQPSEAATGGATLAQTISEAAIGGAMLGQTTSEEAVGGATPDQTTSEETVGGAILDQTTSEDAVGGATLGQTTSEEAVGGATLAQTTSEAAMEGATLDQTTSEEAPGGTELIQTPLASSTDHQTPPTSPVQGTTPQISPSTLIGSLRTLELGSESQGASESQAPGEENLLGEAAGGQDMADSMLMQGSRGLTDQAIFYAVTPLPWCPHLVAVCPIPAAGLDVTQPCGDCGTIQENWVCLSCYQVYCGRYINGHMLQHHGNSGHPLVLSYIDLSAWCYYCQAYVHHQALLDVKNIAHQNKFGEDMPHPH
Description: as §1, §2

T1 sequence (Q13547 whole entry): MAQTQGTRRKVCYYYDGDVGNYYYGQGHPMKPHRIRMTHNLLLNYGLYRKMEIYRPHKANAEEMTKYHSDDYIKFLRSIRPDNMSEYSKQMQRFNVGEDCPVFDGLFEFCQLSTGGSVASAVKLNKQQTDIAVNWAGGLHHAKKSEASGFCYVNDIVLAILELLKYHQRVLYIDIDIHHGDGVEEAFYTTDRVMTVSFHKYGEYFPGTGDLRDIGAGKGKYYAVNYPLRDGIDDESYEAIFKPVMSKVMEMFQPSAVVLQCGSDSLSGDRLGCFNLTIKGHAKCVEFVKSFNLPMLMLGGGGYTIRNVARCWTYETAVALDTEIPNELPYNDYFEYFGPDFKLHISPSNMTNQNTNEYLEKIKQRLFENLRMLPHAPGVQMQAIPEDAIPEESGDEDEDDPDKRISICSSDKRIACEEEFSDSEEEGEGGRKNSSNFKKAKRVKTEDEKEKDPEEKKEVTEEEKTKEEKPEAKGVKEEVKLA

SMILES | IC50 (human recombinant HDAC1) | HDAC6 selectivity (fold) (human recombinant HDAC6) | IC50 (human recombinant HDAC6)
C[C@@H]1CN(C(=O)c2ccccn2)C[C@H](C)N1Cc1ccc(C(=O)NO)cc1 [Compound 111, 4-(((2S,6R)-2,6-dimethyl-4-picolinoylpiperazin-1-yl)methyl)-N-hydroxybenzamide] | > 10000 nM | >22 fold | 461 nM
C[C@@H]1CN(Cc2ccc(-n3ccnc3)cc2)C[C@H](C)N1Cc1ccc(C(=O)NO)cc1 [Compound 301, 4-(((2S,6R)-4-(4-(1H-imidazol-1-yl)benzyl)-2,6-dimethylpiperazin-1-yl)methyl)-N-hydroxybenzamide] | 2800 nM | 11 fold | 253 nM
C[C@@H]1CN(Cc2ccc(C(=O)NO)cc2)C[C@H](C)N1Cc1ccccc1C1=CCOCC1 [Compound 332, 4-(((3R,5S)-4-(2-(3,6-dihydro-2H-pyran-4-yl)benzyl)-3,5-dimethylpiperazin-1-yl)methyl)-N-hydroxybenzamide] | 21900 nM | 207 fold | 106 nM
C[C@@H]1CN(C(=O)Nc2cccc(-n3cccc3)c2)C[C@H](C)N1Cc1ccc(C(=O)NO)cc1 [Compound 186, (3R,5S)-N-(3-(1 H-pyrrol-1-yl)phenyl)-4-(4-(hydroxycarbamoyl)benzyl)-3,5-dimethylpiperazine-1-carboxamide] | 300 nM | 65 fold | 5 nM
C[C@@H]1CN(Cc2ccc(C(=O)NO)cc2)C[C@H](C)N1Cc1cccc(F)c1 [Compound 225, 4-(((3R,5S)-4-(3-fluorobenzyl)-3,5-dimethylpiperazin-1-yl)methyl)-N-hydroxybenzamide] | 1900 nM | 36 fold | 52 nM
C[C@@H]1CN(Cc2ccc(C(=O)NO)cc2)C[C@H](C)N1Cc1ccc(CN2CCOCC2)cc1 [Compound 376, 4-(((3R,5S)-3,5-dimethyl-4-(4-(morpholinomethyl)benzyl)piperazin-1-yl)methyl)-N-hydroxybenzamide] | > 10000 nM | >119 fold | 84 nM
COc1ccccc1NC(=O)N1C[C@@H](C)N(Cc2ccc(C(=O)NO)cc2)[C@@H](C)C1 [Compound 163, (3R,5S)-4-(4-(hydroxycarbamoyl)benzyl)-N-(2-methoxyphenyl)-3,5-dimethylpiperazine-1-carboxamide] | 1100 nM | 2 fold | 497 nM
C[C@@H]1CN(Cc2ccc(C(=O)NO)cc2)C[C@H](C)N1Cc1ccc(CN2CC(F)(F)C2)cc1 [Compound 412, 4-(((3R,5S)-4-(4-((3,3-difluoroazetidin-1-yl)methyl)benzyl)-3,5-dimethylpiperazin-1-yl)methyl)-N-hydroxybenzamide] | 1100 nM | 36 fold | 32 nM
C[C@@H]1CN(C(=O)Nc2ccccc2)C[C@H](C)N1Cc1ccc(C(=O)NO)cc1 [Compound 162, (3R,5S)-4-(4-(hydroxycarbamoyl)benzyl)-3,5-dimethyl-N-phenylpiperazine-1-carboxamide] | 400 nM | 5 fold | 79 nM
C[C@@H]1CN(Cc2ccc(C(=O)NO)cc2)C[C@H](C)N1Cc1ccccc1Cl [Compound 127, 4-(((3R,5S)-4-(2-chlorobenzyl)-3,5-dimethylpiperazin-1-yl)methyl)-N-hydroxybenzamide] | > 10000 nM | >909 fold | 11 nM
C[C@@H]1CN(Cc2ccc(C(=O)NO)cc2)C[C@H](C)N1Cc1cccc(CN2CCOCC2)c1 [Compound 356, 4-(((3R,5S)-3,5-dimethyl-4-(3-(morpholinomethyl)benzyl)piperazin-1-yl)methyl)-N-hydroxybenzamide] | 12300 nM | 558 fold | 22 nM
